The values below come from US20040167226A1, “Methods for the treatment of pain and traumatic injury using benzamides and compositions containing the same” (priority 2002, published 2004).

A word on the melting point: it is the temperature, or range, at which the solid turns liquid. As usually defined, the AUC(0-inf) is total exposure, with the tail of the curve extrapolated. As a reminder, the Cmax is the peak of the concentration-time curve. In general, Tmax refers to the time at which the peak concentration occurs.

Series [1] concerns Taxol-induced mechanical allodynia. The series is described as follows: Taxol-induced neuropathic pain rat model, 50% paw withdrawal threshold (up-down method). Format: in vivo, Sprague-Dawley rats. Conditions: rats, 50 mg/kg p.o. in 1% methylcellulose (positive control). From the text:
Sprague-Dawley male rats with 150-160 grams of body weight were used in the studies presented herein. Rats were trained in the enclosure one hour per day in the morning for a one week period prior to obtaining the baseline response. Whereas the mouse studies assessed percentage of response, the rat studies determined 50% of the paw withdrawal threshold, also called the up-down method as developed by Chung and colleagues. In order to obtain consistent data, naïve rats with paw withdrawal threshold no less than 4 grams were included for further studies. Taxol at a dose of 1 mg/kg (body weight) was administered daily to rats intraperitoneally. As observed in mice, the rats treated with Taxol daily developed stable mechanical allodynia on day 9 and thereafter. On day 13 and day 14 of Taxol induction, the rats pain behavior in term of 50% of paw withdrawal threshold was measured. Only those rats with paw withdrawal threshold measurements no greater than 7 grams for two consecutive days were included for drug testing. Generally speaking, the mechanical allodynia in Taxol treated rats fell in the range of 1-4 gram of paw withdrawal threshold.
1 ml per kg of body weight of either 50 mg/ml or 20 mg/ml of Compound A was administered to rats via oral gavage feeding (p.o.), to yield a dose of either 50 mg/Kg (body weight) or 20 mg/Kg (body weight). The same corresponding volume of 1% methylcellulose was used as vehicle control. 34 male Sprague-Dawely rats were employed for the study. The baseline paw withdrawal threshold (grams of force applied to the plantar area of the right hind paw) and neuropathic pain induction with daily intraperitoneal administration of 1 mg/kg (body weight) was performed as indicated in the previous section. The Taxol treatment was continued for 15 days until the pain threshold remained relatively stable. Animals with baseline greater than 4 grams and with threshold […] post induction were included in the drug testing. 27 rats met the criteria for the next step studies and were randomly assigned into four groups. Group 1 consisting of 7 rats was given 1% methylcellulose as vehicle control group, 1 ml of vehicle per kilograms of body weight was administered to animal via p.o.; group 2 with 6 animals was dosed at 20 mg/kg (body weight) of Compound A via oral gavage feeding (p.o.); group 3 with 7 rats was dosed at 50 mg/kg of Compound A, and the fourth group with 7 rats received Gabapentine at 50 mg/kg via p.o. in the same vehicle as a positive control group. Those rats were habituated in the enclosure and 50% of paw withdrawal thresholds (grams of force) were measured using a set of von Frey filaments, as described in the previous section, at time points of 1, 2, 3, 6, and 24 hours postdosing in a blinded fashion. The tester had no knowledge of which animals received drug or vehicle. It was noted that rats tested were very sleepy in the late afternoon (for 6 hour postdosing measurement), thus the data would not be reliable for 6-hour postdosing time points. […] After finishing the 24 hour postdosing measurement, the paw withdrawal threshold of each animal was calculated and data was analyzed.

Series [2] in a line: PK parameter estimates, 30 mg/kg po in 1% methyl cellulose. It is filed as in vivo, rats. The note with it: rat, plasma, rats, 30 mg/kg po in 1% methyl cellulose, n = 3. An excerpt: The time course of plasma concentration of compound N is depicted in FIG. 1 as well.

Molecule `CC(C)(C)NC(=O)c1cccc([N+](=O)[O-])c1` [Compound G, N-tert-butyl-3-nitrobenzamide] had a melting point of 123 to 125 °C.

With `NCC1(CC(=O)O)CCCCC1` [Gabapentine, reference compound], the “time of peak analgesic effect postdosing” value in series [1] was 3 to 6 h.

`CC(C)(C)NC(=O)c1ccc(N)cc1` [Compound N, N-tert-butyl-4-aminobenzamide] came in with a melting point of 125 to 127 °C. In series [2], the AUC(0-inf) was 1030 µg·h/mL, the maximum concentration (Cmax) is 5400 ng/mL and the Tmax was 0.5 h. Moreover, in series [2] (read-out: Elim.t1/2 (converted)), the half-life was 355 h.

`CC(=O)Nc1cccc(C(=O)NC(C)(C)C)c1` [Compound D, N-tert-butyl-3-acetamidobenzamide] registered a melting point of 194 to 195 °C.
